# From ChEMBL document CHEMBL3102702, “Protein kinase and HDAC inhibitors from the endophytic fungus Epicoccum nigrum” (J Nat Prod, 2014)
# Molecular target: Focal adhesion kinase 1 (Homo sapiens, UniProt Q05397)
# Assay: Inhibition of FAK (unknown origin)
# Focal adhesion kinase 1, sequence (Q05397 whole entry): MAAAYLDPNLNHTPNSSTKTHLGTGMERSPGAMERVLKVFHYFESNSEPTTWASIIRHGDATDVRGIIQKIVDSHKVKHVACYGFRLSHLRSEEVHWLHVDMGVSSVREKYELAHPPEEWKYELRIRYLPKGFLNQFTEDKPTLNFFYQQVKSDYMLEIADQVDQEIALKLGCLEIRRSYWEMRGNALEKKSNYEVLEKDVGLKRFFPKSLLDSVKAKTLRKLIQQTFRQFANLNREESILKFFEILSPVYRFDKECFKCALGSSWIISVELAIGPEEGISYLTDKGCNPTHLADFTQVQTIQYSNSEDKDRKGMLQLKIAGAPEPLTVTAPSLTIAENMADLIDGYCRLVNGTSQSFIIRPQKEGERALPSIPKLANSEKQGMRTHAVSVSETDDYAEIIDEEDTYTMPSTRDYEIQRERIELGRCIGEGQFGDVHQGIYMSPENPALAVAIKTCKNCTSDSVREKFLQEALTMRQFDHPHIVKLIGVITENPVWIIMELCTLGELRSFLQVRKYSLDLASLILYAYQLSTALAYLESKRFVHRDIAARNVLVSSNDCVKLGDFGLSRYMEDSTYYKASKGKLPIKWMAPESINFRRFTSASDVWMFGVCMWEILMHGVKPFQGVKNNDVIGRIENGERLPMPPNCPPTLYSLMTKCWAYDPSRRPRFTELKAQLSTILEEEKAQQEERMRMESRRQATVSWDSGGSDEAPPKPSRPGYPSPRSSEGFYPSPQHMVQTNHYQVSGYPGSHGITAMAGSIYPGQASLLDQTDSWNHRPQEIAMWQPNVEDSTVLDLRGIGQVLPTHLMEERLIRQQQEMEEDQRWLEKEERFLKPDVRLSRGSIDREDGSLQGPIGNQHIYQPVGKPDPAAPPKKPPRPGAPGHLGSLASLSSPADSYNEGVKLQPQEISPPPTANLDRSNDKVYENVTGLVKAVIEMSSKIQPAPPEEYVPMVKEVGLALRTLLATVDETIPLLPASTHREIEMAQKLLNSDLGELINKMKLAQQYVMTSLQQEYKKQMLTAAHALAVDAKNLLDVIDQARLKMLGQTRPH
row,Structure (SMILES),IC50 [µM]
1,COCc1c(C)c(O)c(O)c(O)c1C=O,20.6

# Molecular target: ALK tyrosine kinase receptor (Homo sapiens, UniProt Q9UM73)
# Assay: Inhibition of ALK (unknown origin)
# ALK tyrosine kinase receptor, sequence (Q9UM73 whole entry): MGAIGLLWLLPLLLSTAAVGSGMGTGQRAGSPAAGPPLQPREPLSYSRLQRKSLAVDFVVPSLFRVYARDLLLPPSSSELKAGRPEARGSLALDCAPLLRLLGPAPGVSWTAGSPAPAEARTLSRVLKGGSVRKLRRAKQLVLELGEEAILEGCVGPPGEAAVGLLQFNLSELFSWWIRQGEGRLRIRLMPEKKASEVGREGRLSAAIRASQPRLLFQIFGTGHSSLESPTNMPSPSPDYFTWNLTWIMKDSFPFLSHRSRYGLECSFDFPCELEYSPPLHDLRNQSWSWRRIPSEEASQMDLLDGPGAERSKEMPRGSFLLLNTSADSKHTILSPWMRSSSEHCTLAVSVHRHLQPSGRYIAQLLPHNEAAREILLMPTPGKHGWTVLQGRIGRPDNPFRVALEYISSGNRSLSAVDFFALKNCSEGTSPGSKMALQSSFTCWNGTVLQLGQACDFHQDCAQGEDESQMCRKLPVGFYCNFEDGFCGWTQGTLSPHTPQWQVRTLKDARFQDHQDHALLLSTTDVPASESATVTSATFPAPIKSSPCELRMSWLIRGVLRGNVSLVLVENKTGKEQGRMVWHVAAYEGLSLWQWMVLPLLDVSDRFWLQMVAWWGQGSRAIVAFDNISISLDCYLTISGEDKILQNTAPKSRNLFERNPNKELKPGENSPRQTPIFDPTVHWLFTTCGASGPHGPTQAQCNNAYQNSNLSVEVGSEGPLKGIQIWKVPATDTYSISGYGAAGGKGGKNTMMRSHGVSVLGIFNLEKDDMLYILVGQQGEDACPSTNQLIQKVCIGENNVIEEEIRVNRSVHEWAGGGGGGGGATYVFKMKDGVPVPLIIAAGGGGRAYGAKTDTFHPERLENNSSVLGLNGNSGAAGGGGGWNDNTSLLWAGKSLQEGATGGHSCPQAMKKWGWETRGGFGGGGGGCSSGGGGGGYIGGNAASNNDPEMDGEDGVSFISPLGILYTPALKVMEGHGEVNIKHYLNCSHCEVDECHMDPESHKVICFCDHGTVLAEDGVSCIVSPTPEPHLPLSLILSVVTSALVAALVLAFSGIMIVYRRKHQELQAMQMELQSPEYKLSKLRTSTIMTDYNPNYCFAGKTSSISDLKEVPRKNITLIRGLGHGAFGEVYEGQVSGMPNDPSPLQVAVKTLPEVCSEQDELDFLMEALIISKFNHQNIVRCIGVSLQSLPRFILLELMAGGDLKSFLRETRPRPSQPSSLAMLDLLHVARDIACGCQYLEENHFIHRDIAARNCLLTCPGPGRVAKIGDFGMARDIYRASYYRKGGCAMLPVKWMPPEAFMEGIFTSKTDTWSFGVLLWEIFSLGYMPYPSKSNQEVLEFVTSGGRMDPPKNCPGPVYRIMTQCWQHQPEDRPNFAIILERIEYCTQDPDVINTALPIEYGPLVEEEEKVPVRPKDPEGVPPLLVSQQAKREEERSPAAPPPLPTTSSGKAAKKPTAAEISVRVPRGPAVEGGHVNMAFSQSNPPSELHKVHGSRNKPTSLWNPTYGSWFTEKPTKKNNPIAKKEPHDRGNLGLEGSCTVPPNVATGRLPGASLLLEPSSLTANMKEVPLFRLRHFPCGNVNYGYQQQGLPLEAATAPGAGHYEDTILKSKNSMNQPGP
row,Structure (SMILES),IC50 [µM]
1,COCc1c(C)c(O)c(O)c(O)c1C=O,9.33

# Molecular target: Insulin-like growth factor 1 receptor (Homo sapiens, UniProt P08069)
# Assay: Inhibition of IGF1R (unknown origin)
row,Structure (SMILES),IC50 [µM]
1,COCc1c(C)c(O)c(O)c(O)c1C=O,3.5

# Molecular target: T1, Tyrosine-protein kinase receptor UFO (Homo sapiens, UniProt P30530)
# T1 sequence (P30530 whole entry): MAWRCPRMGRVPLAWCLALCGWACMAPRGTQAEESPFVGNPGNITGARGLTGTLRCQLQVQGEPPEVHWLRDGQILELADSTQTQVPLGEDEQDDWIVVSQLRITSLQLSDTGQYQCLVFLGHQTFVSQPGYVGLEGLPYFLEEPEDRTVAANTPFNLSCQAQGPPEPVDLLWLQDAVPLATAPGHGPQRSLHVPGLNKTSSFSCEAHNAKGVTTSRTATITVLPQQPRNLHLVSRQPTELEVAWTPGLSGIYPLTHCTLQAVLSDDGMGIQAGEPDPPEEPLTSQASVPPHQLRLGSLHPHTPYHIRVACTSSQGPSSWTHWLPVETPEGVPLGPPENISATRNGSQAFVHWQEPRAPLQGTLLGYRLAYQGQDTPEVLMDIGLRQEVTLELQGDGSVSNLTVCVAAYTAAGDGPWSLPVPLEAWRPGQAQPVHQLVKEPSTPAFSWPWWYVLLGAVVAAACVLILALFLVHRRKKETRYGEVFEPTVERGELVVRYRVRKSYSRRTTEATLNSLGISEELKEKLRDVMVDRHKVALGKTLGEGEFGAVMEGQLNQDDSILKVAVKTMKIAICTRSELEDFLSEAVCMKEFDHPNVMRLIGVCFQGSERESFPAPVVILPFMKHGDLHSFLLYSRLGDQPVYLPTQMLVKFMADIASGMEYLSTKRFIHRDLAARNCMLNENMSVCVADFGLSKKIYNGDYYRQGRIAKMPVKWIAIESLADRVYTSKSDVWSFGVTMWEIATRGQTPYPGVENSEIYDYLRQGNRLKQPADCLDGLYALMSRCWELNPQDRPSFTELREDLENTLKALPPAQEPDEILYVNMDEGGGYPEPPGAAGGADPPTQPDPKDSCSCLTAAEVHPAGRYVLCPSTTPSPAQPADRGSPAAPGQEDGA
# Assay: Inhibition of AXL (unknown origin)
row,Structure (SMILES),IC50 [µM]
1,COCc1c(C)c(O)c(O)c(O)c1C=O,11

# Molecular target: T2, Serine/threonine-protein kinase Nek2 (Homo sapiens, UniProt P51955)
# T2 sequence (P51955 whole entry): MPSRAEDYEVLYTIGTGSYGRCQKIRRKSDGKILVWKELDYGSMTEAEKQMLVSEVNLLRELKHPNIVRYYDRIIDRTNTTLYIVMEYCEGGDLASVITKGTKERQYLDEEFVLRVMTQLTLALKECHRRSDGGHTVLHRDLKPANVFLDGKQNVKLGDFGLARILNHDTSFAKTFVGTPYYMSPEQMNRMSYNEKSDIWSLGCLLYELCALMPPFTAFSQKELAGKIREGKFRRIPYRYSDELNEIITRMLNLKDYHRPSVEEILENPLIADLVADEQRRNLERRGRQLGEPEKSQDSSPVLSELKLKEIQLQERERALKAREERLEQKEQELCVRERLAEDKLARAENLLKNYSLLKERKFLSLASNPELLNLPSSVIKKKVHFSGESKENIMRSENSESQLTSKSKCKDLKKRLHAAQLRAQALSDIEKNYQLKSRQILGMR
# Assay: Inhibition of NEK2 (unknown origin)
row,Structure (SMILES),IC50 [µM]
1,COCc1c(C)c(O)c(O)c(O)c1C=O,> 30

# Molecular target: Vascular endothelial growth factor receptor 2 (Homo sapiens, UniProt P35968)
# Assay: Inhibition of VEGFR2 (unknown origin)
row,Structure (SMILES),IC50 [µM]
1,COCc1c(C)c(O)c(O)c(O)c1C=O,> 30

# Molecular target: RAC-alpha serine/threonine-protein kinase (Homo sapiens, UniProt P31749)
# Assay: Inhibition of AKT1 (unknown origin)
# RAC-alpha serine/threonine-protein kinase, sequence (P31749 whole entry): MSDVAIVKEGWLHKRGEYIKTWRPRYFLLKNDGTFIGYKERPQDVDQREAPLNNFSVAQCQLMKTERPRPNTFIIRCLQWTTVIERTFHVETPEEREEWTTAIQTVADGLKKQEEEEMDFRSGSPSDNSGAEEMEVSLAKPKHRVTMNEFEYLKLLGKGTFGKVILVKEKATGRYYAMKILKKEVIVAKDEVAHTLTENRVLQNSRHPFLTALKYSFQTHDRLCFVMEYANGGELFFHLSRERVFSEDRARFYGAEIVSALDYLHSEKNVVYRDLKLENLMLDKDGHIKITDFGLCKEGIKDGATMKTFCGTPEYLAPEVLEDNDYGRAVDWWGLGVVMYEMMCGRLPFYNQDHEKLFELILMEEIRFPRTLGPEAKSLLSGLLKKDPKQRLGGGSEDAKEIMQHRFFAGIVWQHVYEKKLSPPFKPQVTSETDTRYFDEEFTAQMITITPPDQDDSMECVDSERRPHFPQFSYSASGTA
row,Structure (SMILES),IC50 [µM]
1,COCc1c(C)c(O)c(O)c(O)c1C=O,> 30

# Molecular target: Serine/threonine-protein kinase N1 (Homo sapiens, UniProt Q16512)
# Assay: Inhibition of PRK1 (unknown origin)
row,Structure (SMILES),IC50 [µM]
1,COCc1c(C)c(O)c(O)c(O)c1C=O,> 30

# Molecular target: T3, NUAK family SNF1-like kinase 1 (Homo sapiens, UniProt O60285)
# T3 sequence (O60285 whole entry): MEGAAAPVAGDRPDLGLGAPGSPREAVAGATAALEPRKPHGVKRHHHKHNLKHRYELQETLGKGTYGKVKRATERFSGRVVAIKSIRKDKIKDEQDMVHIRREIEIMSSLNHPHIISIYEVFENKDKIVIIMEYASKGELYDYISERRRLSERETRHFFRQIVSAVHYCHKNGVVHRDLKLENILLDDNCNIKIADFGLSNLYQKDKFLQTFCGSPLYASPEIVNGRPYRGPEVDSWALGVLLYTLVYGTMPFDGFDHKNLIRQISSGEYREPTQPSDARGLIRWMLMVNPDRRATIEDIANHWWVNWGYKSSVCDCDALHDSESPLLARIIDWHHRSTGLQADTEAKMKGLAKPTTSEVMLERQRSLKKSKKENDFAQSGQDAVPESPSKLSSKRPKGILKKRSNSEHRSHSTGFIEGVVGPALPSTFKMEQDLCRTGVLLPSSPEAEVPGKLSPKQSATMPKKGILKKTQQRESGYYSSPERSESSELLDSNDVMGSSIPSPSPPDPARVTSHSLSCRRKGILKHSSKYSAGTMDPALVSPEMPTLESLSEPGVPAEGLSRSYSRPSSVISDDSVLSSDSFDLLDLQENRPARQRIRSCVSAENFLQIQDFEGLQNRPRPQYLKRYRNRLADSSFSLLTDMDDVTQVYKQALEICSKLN
# Assay: Inhibition of ARK5 (unknown origin)
row,Structure (SMILES),IC50 [µM]
1,COCc1c(C)c(O)c(O)c(O)c1C=O,> 30

# Molecular target: Aurora kinase B (Homo sapiens, UniProt Q96GD4)
# Assay: Inhibition of aurora-B (unknown origin)
# Aurora kinase B, sequence (Q96GD4 whole entry): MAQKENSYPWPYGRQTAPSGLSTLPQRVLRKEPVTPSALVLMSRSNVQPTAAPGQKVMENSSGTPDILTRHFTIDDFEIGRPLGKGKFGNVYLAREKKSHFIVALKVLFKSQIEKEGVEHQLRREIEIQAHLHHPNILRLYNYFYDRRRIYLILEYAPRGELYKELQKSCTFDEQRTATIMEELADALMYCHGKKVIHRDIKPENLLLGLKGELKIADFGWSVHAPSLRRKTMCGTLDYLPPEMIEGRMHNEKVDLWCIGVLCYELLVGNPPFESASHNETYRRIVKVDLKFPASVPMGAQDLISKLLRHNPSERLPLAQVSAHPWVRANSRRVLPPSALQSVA
row,Structure (SMILES),IC50 [µM]
1,COCc1c(C)c(O)c(O)c(O)c1C=O,20.6

# Molecular target: Serine/threonine-protein kinase Nek6 (Homo sapiens, UniProt Q9HC98)
# Assay: Inhibition of NEK6 (unknown origin)
# Serine/threonine-protein kinase Nek6, sequence (Q9HC98 whole entry): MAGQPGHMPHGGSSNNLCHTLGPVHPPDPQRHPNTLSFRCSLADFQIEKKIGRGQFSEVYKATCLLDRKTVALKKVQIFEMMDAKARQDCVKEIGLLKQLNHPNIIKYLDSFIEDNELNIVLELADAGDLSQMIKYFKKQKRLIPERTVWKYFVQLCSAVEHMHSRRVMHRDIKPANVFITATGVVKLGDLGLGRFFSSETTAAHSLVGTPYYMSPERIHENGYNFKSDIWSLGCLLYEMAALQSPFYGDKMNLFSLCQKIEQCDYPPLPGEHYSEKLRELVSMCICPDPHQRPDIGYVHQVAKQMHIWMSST
row,Structure (SMILES),IC50 [µM]
1,COCc1c(C)c(O)c(O)c(O)c1C=O,> 30

# Molecular target: Serine/threonine-protein kinase pim-1 (Homo sapiens, UniProt P11309)
# Assay: Inhibition of PIM1 (unknown origin)
row,Structure (SMILES),IC50 [µM]
1,COCc1c(C)c(O)c(O)c(O)c1C=O,> 30

# Molecular target: Proto-oncogene tyrosine-protein kinase Src (Homo sapiens, UniProt P12931)
# Assay: Inhibition of SRC (unknown origin)
row,Structure (SMILES),IC50 [µM]
1,COCc1c(C)c(O)c(O)c(O)c1C=O,20

# Molecular target: Serine/threonine-protein kinase PLK1 (Homo sapiens, UniProt P53350)
# Assay: Inhibition of PLK1 (unknown origin)
# Serine/threonine-protein kinase PLK1, sequence (P53350 whole entry): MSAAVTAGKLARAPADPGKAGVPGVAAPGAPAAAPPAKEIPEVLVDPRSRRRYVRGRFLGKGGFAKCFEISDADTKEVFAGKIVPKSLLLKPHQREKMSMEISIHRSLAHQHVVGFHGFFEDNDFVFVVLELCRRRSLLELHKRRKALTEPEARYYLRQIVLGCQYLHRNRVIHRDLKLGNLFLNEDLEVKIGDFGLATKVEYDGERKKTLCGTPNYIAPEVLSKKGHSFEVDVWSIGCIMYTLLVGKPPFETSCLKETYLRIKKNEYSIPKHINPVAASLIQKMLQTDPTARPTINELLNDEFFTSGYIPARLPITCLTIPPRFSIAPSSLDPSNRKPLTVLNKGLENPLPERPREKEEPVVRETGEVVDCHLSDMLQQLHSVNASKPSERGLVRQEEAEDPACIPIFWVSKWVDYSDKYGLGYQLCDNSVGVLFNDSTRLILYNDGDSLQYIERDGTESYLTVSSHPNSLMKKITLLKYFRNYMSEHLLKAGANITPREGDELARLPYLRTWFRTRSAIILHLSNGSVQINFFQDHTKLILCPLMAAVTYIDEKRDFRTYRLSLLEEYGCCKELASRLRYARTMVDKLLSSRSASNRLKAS
row,Structure (SMILES),IC50 [µM]
1,COCc1c(C)c(O)c(O)c(O)c1C=O,> 30

# Molecular target: Hepatocyte growth factor receptor (Homo sapiens, UniProt P08581)
# Assay: Inhibition of wild type MET (unknown origin)
row,Structure (SMILES),IC50 [µM]
1,COCc1c(C)c(O)c(O)c(O)c1C=O,> 30

# Molecular target: Dual specificity mitogen-activated protein kinase kinase 1 (Homo sapiens, UniProt Q02750)
# Assay: Inhibition of wild type MEK1 (unknown origin)
# Dual specificity mitogen-activated protein kinase kinase 1, sequence (Q02750 whole entry): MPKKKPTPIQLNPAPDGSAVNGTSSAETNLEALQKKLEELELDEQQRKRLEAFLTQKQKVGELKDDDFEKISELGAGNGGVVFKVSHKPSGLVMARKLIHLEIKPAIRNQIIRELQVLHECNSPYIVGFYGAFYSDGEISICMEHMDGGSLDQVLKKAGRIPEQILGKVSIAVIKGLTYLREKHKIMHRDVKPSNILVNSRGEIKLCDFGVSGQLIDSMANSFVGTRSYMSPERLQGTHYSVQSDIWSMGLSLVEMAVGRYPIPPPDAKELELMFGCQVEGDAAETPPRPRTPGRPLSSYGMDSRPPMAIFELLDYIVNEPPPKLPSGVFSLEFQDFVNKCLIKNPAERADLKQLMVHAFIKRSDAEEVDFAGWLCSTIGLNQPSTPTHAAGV
row,Structure (SMILES),IC50 [µM]
1,COCc1c(C)c(O)c(O)c(O)c1C=O,> 30
